Assay [1] relates to β-catenin/TCF-responsive TOPFlash reporter. The experiment in a line: TOPFlash reporter assay in H9 human ESCs. It is filed as cell-based. The note with it: 24 h. The procedure:
(A) TOPFlash™ assay in H9 human ESCs subjected to the indicated treatments for 24 h. Data represent mean±s.d. of three biological replicates. (B) Representative phase contrast and alkaline phosphatase (AP) staining images of H9 human ESCs cultured in the indicated conditions for 3 passages. (C) Phase contrast images of H9 human ESCs cultured in CHIR/XAV or CHIR/IWR-1 for 11 passages. (D) Colony forming efficiency assay of H9 human ESCs cultured in FGF2 or CHIR/IWR-1 conditions. Data represent mean±s.d. of three biological replicates. Right panel: a representative image showing AP staining of colonies formed from H9 human ESCs cultured in either FGF2 or CHIR/IWR-1 condition. (E) Human ESCs cultured in CHIR/IWR-1 for 11 passages were immunostained with the indicated antibodies. (F) Embryoid bodies (EBs) were generated from H9 human ESCs cultured in CHIR/IWR-1 for 11 passages. The outgrowths of EBs were immunostained with the indicated antibodies. (G) H&E staining of teratomas generated from H9 ESCs cultured in CHIR/IWR-1 for 20 passages. (H) Western blot analysis of Axin1 and Axin2 expression in HES3 human ESCs treated with the indicated cytokines/inhibitors for 24 h. (I) Immunofluorescence images of H9 human ESCs (passage 5 in CHIR) overexpressing Flag-tagged Axin2. (J) Representative phase contrast and immunofluorescence images of HES2 human ESCs overexpressing ΔNβ-catenin-ERT2 at passage 5 in basal medium only. These cells were cultured in basal medium only for more than 10 passages and remained morphologically undifferentiated. (K) Phase contrast images of HES2 human ESCs overexpressing ΔNβ-catenin (left panel, passage 2 in basal medium/FGF2) or ΔNβ-catenin/A295W/I296W mutant (right panel, passage 5 in basal medium only). Scale bars, 50 μm (B, C, E-G, and I-K). (L) Model of mouse EpiSC and human ESC self-renewal mediated by β-catenin. In the absence of Wnt or GSK3 inhibitor, a β-catenin destruction complex, containing Axin1, GSK3, and APC is formed, leading to the degradation of β-catenin and differentiation (left). In the presence of Wnt or GSK3 inhibitor, β-catenin is stabilized and can initiate cellular responses related to both self-renewal and differentiation. Stabilized β-catenin induces differentiation when it translocates into the nucleus and binds TCFs to activate downstream targets (middle). Addition of XAV or IWR-1 stabilizes Axin2. […]
(§1) For quantifying relative Oct3/4 enhancer activities, pGL3-Oct4 DE and pGL3-Oct4 PE plasmids (gifts from Hans Schöler's lab) were co-transfected with the Renilla vector, using the Amaxa™ Transfection Kit (Lonza). […] For quantifying relative β-catenin/Tcf transcriptional activity, pGL2-SuperTOP™ plasmid (gift from Randall Moon) was co-transfected with the Renilla vector and assayed accordingly.
A general note: Reporter assays use an easily measured gene product as a stand-in for the process of interest.

The test system is the same in assay [2]. The experiment in a line: TOPFlash reporter assay in mouse EpiSCs. The note with it: CD1 mouse EpiSCs, 12 hours. It is filed as cell-based. The procedure:
(A) TOPFlash™ assay in CD1 mouse EpiSCs treated with the indicated inhibitors for 12 hours. Data represent mean±s.d. of three biological replicates. (B) Representative phase contrast images of CD1 mouse EpiSCs cultured in the indicated conditions for 7 days. (C) Western blot analysis of CD1 mouse EpiSCs treated with the indicated inhibitors for 12 h. (D) qRT-PCR analysis of Axin1 and Axin2 mRNA levels in CD1 mouse EpiSCs stably transfected with Axin1 shRNA or Axin2 shRNA. Data represent mean±s.d. of three biological replicates. (E) Colony assay on CD1 mouse EpiSCs stably transfected with scramble, Axin1, or Axin2 shRNAs. Cells were plated onto a 6-well plate at a density of 5,000 cells/well and cultured in CHIR/IWR-1. Colonies were counted 7 days after plating. Data represent the total combined numbers of colonies from two independent experiments in which each shRNA-transfected group was cultured in one well of a 6-well plate. (F) Representative phase contrast images of CD 1 mouse EpiSCs stably transfected with the indicated shRNAs and cultured in CHIR/IWR-1 for 7 days. (G) Western blot analysis of CD1 mouse EpiSCs overexpressing Flag-tagged Axin1 or Axin2. (H) Representative phase contrast images of CD1 mouse EpiSCs overexpressing Axin1 or Axin2 and cultured in CHIR for 7 days. Axin2-overexpressing EpiSCs could be continually passaged in CHIR alone. Scale bars, 50 μm (B, F and H)
Next, we investigated the mechanism by which CHIR/XAV promotes EpiSC self-renewal. By inhibiting GSK3 phosphorylation of β-catenin, CHIR stabilizes β-catenin, which then trans-locates to the nucleus and forms complexes with DNA-binding proteins, including TCFs, to activate transcription (Logan and Nusse, 2004). […]
as §1

As for `Oc1nc(-c2ccc(C(F)(F)F)cc2)nc2c1CSCC2` [XAV939, 3,5,7,8-Tetrahydro-2-[4-(trifluoromethyl)phenyl]-4H-thiopyrano[4,3-d]pyrimidin-4-one], the “effect on TOPFlash activity induced by CHIR” value is given as “abolished this TOPFlash™ activity” in assay [1] (added to CHIR) and “abolished the TOPFlash activity induced by CHIR” in assay [2] (added to CHIR).

As for `Cc1c[nH]c(-c2cnc(NCCNc3ccc(C#N)cn3)nc2-c2ccc(Cl)cc2Cl)n1` [CHIR99021, 6-((2-((4-(2,4-Dichlorophenyl)-5-(4-methyl-1H-imidazol-2-yl)pyrimidin-2-yl)amino)ethyl)amino)nicotinonitrile], the TOPFlash reporter activity result in assay [1] and in assay [2] was “strongly induced” in each case.

The values are drawn from US20130273649A1, “Culture medium for pluripotent stem cells” (UNIVERSITY OF SOUTHERN CALIFORNIA, priority 2012, published 2013).
